Results reported in US8604059B2, “Thioxanthene derivatives for the treatment of infectious diseases” (BKG Pharma APS, priority 2009, dated 2013).
≈ marks a conversion by molar mass, not a printed value. Like-named read-outs stand apart in the source and are kept apart here.

Columns and labels:
strain IIIB of HIV-1 = assay: Inhibition of HIV-1 replication in MT4 cells, MTT assay; assay type: cell-based; details: Human immunodeficiency virus 1, IIIB
Procedure: The enhancing effect of compound 3 on anti-viral agents was studied by checkerboard combination studies exposing HIV infected cells to 0-3 μM anti-viral agent in the absence or presence of compound 3 in concentrations from 0 to 6 μM. Each experiment was repeated in tripleduplicate. MIC values represent the mean values of two separate experiments.
The HIV-1 strain HTLV-IIIB were propagated in H9 cells at 37° C., 5% CO2 using RPMI 1640 with 10% heat-inactivated foetal calf serum (FCS) and antibiotics (growth medium). Culture supernatant was filtered ([…]), aliquotted, and stored at −80° C. until use. The HIV-1 strain was obtained from NIH AIDS Research and Reference Program.
(§1) Compounds were examined for possible antiviral activity against strain IIIB of HIV-1 using MT4 cells as target cells. MT4 cells were incubated with virus (0.005 MOI) and growth medium containing the test dilutions of compound(s) for six days in parallel with virus-infected and uninfected control cultures without compound added. Expression of HIV in the cultures was indirectly quantified using the MTT assay as previously described. Compounds mediating less than 30% reduction of HIV expression were considered without biological activity. Compounds were tested in parallel for cytotoxic effect in uninfected MT4 cultures containing the test dilutions of compound as described above. Cultures for test of both antiviral activity and cytotoxic effect were set up in tripleduplicates, […] per culture in micro titre plates. A 30% inhibition of cell growth relative to control cultures was considered significant. The 50% inhibitory concentration was determined by interpolation from the plots of percent inhibition versus concentration of compound.
EC50 is defined as the effective concentration that inhibits 50% of viral production, 50% of viral infectivity, or 50% of the virus-induced cytopathic effect.

MT4 cells = assay: Cytotoxic effect in uninfected MT4 cultures; assay type: cell-based; details: read-out: CC50 A + C3 (1 μM); AZT in presence of compound 3 at 1 μM
Procedure: as §1
(§2) CC50 is defined as the inhibitory concentration that reduces cellular growth or viability of uninfected cells by 50%.

[1] = Cytotoxic effect in uninfected MT4 cultures; assay type: cell-based; details: human, uninfected MT4 cells; single agent; uninfected MT4
Procedure: as §1, §2

[2] = system: S. aureus MRSA clinical isolates; assay: FIC index, synergy with antibiotics (Table 4a); assay type: cell-based, Staphylococcus aureus; details: with Dicloxacillin; 8 MRSA; mean; compound at ¼ of MIC
Procedure: (§3) The effect of the compounds was tested according to the methods described in WO2005/105145. In brief, cell growth was tested using the MIC susceptibility tests by use of the microdilution broth method in accordance to the NCCLS Guidelines (NCCLS Guidelines, Methods for Dilution Antimicrobial Susceptibility Tests for Bacteria That Grow Aerobically; Approved Standard, Sixth Edition, Volume 23; Number 2).
(§4) The Fractional Inhibitory Concentration (FIC) index were calculated for each compound as described in WO2005/105145. Synergy was defined for Fractional Inhibitory Concentration (FIC) indices less than 0.5
Staphylococcus aureus: 8 (MRSA) in vivo-selected clinical isolates. Resistant to methicillin and beta-lactam antibiotics. Susceptible to teicoplanin chloramphenicol, fosfomycin, netilmicin and vancomycin.

[3] = system: E. faecalis MDR/VRE clinical isolates; assay: FIC index, synergy with antibiotics (Table 4a); assay type: cell-based, Enterococcus faecalis; details: 8 MDR/VRE E. faecalis, mean, compound at ¼ of MIC
Procedure: as §3, §4
Enterococcus faecalis: 8 multidrug resistant in vivo-selected clinical isolates. […] Expressing change in the cell wall precursor target as a major resistance mechanism (VanA gene expression).

[4] = system: E. coli MDR clinical isolates; assay: FIC index, synergy with antibiotics (Table 4a); assay type: cell-based; details: 8 MDR E. coli, mean, compound at ¼ of MIC
Procedure: as §3, §4
E. coli: 8 in vivo-selected multidrug resistant clinical isolates of E. coli. Resistant to tetracycline, beta-lactams, fluoroquinolones, chloramphenicol and aminoglycoside

[5] = system: Multiresistant clinical isolates E. coli; assay: Maximal reversal of resistance and synergistic effect (Table 4c); assay type: cell-based; details: E. coli multiresistant isolates
Procedure: The maximal obtained reversal of resistance and synergistic effect was tested as previously described.
Strains: Multiresistant clinical isolates E. coli, Ten strains in each group.

E. faecium = assay: MIC, microdilution broth, multiresistant clinical isolates (Table 1A); assay type: cell-based; details: Enterococcus faecium; ten multiresistant clinical isolates; read-out: Median MIC E. faecium
Procedure: (§5) Cell growth was tested using the Minimal Inhibitory Concentration (MIC) susceptibility tests by use of the microdilution broth method in accordance to the NCCLS Guidelines (NCCLS Guidelines, Methods for Dilution Antimicrobial Susceptibility Tests for Bacteria That Grow Aerobically; Approved Standard, Sixth Edition, Volume 23; Number 2). The minimum inhibitory concentration (MIC), is defined as the lowest concentration of drug which inhibits growth of the test organism, in the sense that no visible growth is detected (total inhibition of growth). In example 2, MIC of the compounds used on fungal microorgansims was determined from the IC90 measurements according to NCCLS Guidelines.
(§6) A log phase culture of bacteria was diluted with fresh pre-warmed Mueller-Hinton medium and adjusted to a defined OD at 600 nm in order to give a final concentration of 1×10^4-5 bacteria/ml medium. The bacterial culture was transferred to microtiter-plates and culture was added to each well. […] Trays were incubated at 37° C. by shaking in a robot analyzer, PowerWavex, software KC^4′ Kebo. Lab, Copenhagen, for 16 h and optical densities were measured at 600 nm during the incubation time in order to record growth curves. Wells containing bacterial culture without drug were used as controls to ensure correct inoculum size and bacterial growth during the incubation. Cultures were tested in order to detect contaminations. Each experiment was repeated in triplicate.
(§7) Ten strains in each test group.

E. faecalis = assay: as above; assay type: cell-based; details: Enterococcus faecalis; ten multiresistant clinical isolates; read-out: Median MIC E. faecalis
Procedure: as §5, §6, §7

S. aureus = assay: as above; assay type: cell-based; details: Staphylococcus aureus; ten multiresistant clinical isolates; read-out: Median MIC S. aureus
Procedure: as §5, §6, §7

E. coli = assay: as above; assay type: cell-based; details: Escherichia coli; ten multiresistant clinical isolates; read-out: Median MIC E. coli
Procedure: as §5, §6, §7

S. epidermidis = assay: as above; assay type: cell-based; details: Staphylococcus epidermidis; ten multiresistant clinical isolates; read-out: Median MIC S. epidermidis
Procedure: as §5, §6, §7

Candida albicans = assay: Synergy with fluconazole, broth microdilution NCCLS M27-A (Table 10); assay type: cell-based
Procedure: The isolates were subcultured for 24 h on Sabouraud glucose agar before susceptibility testing. Broth microdilution tests were performed according to NCCLS document M27-A (Ref: National Commitee for Clinical Laboratory Standards. (1997). Reference Method for Broth Dilution Antifungal Susceptibility Testing of Yeasts: Approved Standard M27-A. NCCLS, Wayne, Pa.) Microtitre plates were read spectrophotometrically at 530 nm, after mixing the wells by pipetting to resuspend yeast sediments. […] The Fractional Inhibitory Concentration (FIC) was calculated for the anti-infective agent alone and in combination with compound 3 and 4 (see table 4) as described above. Synergy was defined as a FIC index of <0.5.

Enterococci sp. = assay: MIC on multiresistant and susceptible clinical isolates of Enterococci (Table 2); assay type: cell-based, Enterococcus faecalis and Enterococcus faecium; details: 8 multiresistant (VanA, VanB, HLAR, BLR,CR) and 8 susceptible isolates
Procedure: as §5
A log phase culture of bacteria was diluted with fresh pre-warmed Mueller-Hinton medium and adjusted to a defined OD at 600 nm in order to give a final concentration of 1×10^4-5 bacteria/ml medium. The bacterial culture was transferred to microtiter-plates and culture was added to each well. Drug was added to the bacterial culture in the wells as two-fold dilution series of drug in order to give final concentrations ranging from 0.03 to 128 μg/ml. Trays were incubated at 37° C. by shaking in a robot analyzer, PowerWavex, software KC^4′ Kebo. Lab, Copenhagen, for 16 h and optical densities were measured at 600 nm during the incubation time in order to record growth curves. […]

Candida species = assay: MIC on clinical isolates of Candida species, broth microdilution NCCLS M27-A (Table 3); assay type: cell-based; details: Candida species incl. fluconazole resistant; MIC = 90% growth inhibition
Procedure: The antibacterial effect of demethylated/dealkylated phenothiazine or thioxanthene compounds were studied by growth inhibition studies exposing cells to 0-32 μg/ml of drug. Each experiment was repeated in triplicate. MIC values represent the mean values of two separate triplicate experiments.
4 clinical isolates of Candida species (including 3 fluconazole resistant isolates) were subcultured for 24 h on Sabouraud glucose agar before susceptibility testing. Broth microdilution tests were performed according to NCCLS document M27-A (Ref: National Commitee for Clinical Laboratory Standards. (1997). Reference Method for Broth Dilution Antifungal Susceptibility Testing of Yeasts: Approved Standard M27-A. NCCLS, Wayne, Pa.). Microtitre plates were read spectrophotometrically at 530 nm, after mixing the wells by pipetting to resuspend yeast sediments. In this experiment, the MIC was defined as the lowest drug dilution resulting in 90% growth inhibition.

Streptococci = assay: MIC on multiresistant and susceptible clinical isolates (Table 1b); assay type: cell-based; details: 8 multiresistant and 8 susceptible isolates
Procedure: as §5
(§8) A log phase culture of bacteria was diluted with fresh pre-warmed Mueller-Hinton medium and adjusted to a defined OD at 600 nm in order to give a final concentration of 1×10^4-5 bacteria/ml medium. The bacterial culture was transferred to microtiter-plates and culture was added to each well. Drug was added to the bacterial culture in the wells as two-fold dilution series of drug in order to give final concentrations ranging from 0.03 to 128 μg/ml. Trays were incubated at 37° C. by shaking in a robot analyzer, PowerWavex, software KC^4′ Kebo. Lab, Copenhagen, for 16 h and optical densities were measured at 600 nm during the incubation time in order to record growth curves. Wells containing bacterial culture without drug were used as controls to ensure correct inoculum size and bacterial growth during the incubation. Cultures were tested in order to detect contaminations. Each experiment was repeated in triplicate. MIC values represent the mean values of two separate triplicate experiments. Intra- and interassay variation was <5%.
(§9) Clinically relevant human bacterial isolates of Staphylococci, Streptococci, Micrococci and Gram negative species was cultured and assayed as described above for susceptibility towards the compounds listed in table 1b.

[6] = system: Staphylococci, Micrococci. Including MRSA; assay: as above; assay type: cell-based; details: Micrococci incl. MRSA, 8 multiresistant and 8 susceptible isolates
Procedure: as §5, §8, §9

Gram negative sp. = assay: as above; assay type: cell-based; details: 8 multiresistant and 8 susceptible isolates
Procedure: as §5, §8, §9

Cc1cn([C@H]2C[C@H](N=[N+]=[N-])[C@@H](CO)O2)c(=O)[nH]c1=O [AZT, 3′-Azido-3′-deoxythymidine]
EC50 (strain IIIB of HIV-1; 144 h, single agent, MT4 cells, six days, read-out: EC50): 50 nM | EC50 (strain IIIB of HIV-1; MT4, read-out: EC50 A + C3 (1 μM), AZT in presence of compound 3 at 1 μM): 10 nM | CC50 (MT4 cells): > 3000 nM | CC50 at 6 days [1]: > 3000 nM

Clc1ccc2c(c1)/C(=C/CCN1CCNCC1)c1ccccc1S2 [Compound 1, N-dealkyl-transclopenthixol]
FIC index [2]: 0.28 | FIC index ([3]; with Ciprofloxacin): 0.28 | FIC index ([3]; with Dicloxacillin): 0.28 | FIC index ([4]; with Ampicillin): 0.47 | FIC index ([4]; with Ciprofloxacin): 0.47 | FIC index ([4]; with Gentamycin): 0.47 | FIC index ([4]; with Tetracycline): 0.47 | Maximal reversal of resistance: concentration of compound [5]: 1.0 µg/mL | MIC (E. faecium): 0.6 µg/mL (≈ 1.68 µM) | MIC (E. faecalis): 0.6 µg/mL (≈ 1.68 µM) | MIC (S. aureus): 3.6 µg/mL (≈ 10.1 µM) | MIC (E. coli): 6 µg/mL (≈ 16.8 µM) | MIC (S. epidermidis): 2.4 µg/mL (≈ 6.72 µM)

OCCN1CCN(CC/C=C2\c3ccccc3Sc3ccc(Cl)cc32)CC1 [Compound 2, trans-clopentixol]
FIC index [2]: 0.37 | FIC index ([3]; with Ciprofloxacin): 0.47 | FIC index ([3]; with Dicloxacillin): 0.47 | FIC index ([4]; with Ampicillin): 0.47 | FIC index ([4]; with Ciprofloxacin): 0.44 | FIC index ([4]; with Gentamycin): 0.44 | FIC index ([4]; with Tetracycline): 0.47 | Maximal reversal of resistance: concentration of compound [5]: 2.0 µg/mL | MIC (E. faecium): 1 µg/mL (≈ 2.49 µM) | MIC (E. faecalis): 1 µg/mL (≈ 2.49 µM) | MIC (S. aureus): 8 µg/mL (≈ 20 µM) | MIC (E. coli): 16 µg/mL (≈ 39.9 µM) | MIC (S. epidermidis): 8 µg/mL (≈ 20 µM)

OCCN1CCC(CC/C=C2\c3ccccc3Sc3ccc(Cl)cc32)CC1 [Compound 4]
FIC index [2]: 0.34 | FIC index ([3]; with Ciprofloxacin): 0.34 | FIC index ([3]; with Dicloxacillin): 0.34 | FIC index ([4]; with Ampicillin): 0.44 | FIC index ([4]; with Ciprofloxacin): 0.47 | FIC index ([4]; with Gentamycin): 0.47 | FIC index ([4]; with Tetracycline): 0.44 | MIC (Candida albicans; Candida albicans, compound alone, read-out: MIC Compound): 1.5 µg/mL | FIC index (Candida albicans; in combination with fluconazole): 0.39 | MIC Mean (range) (Enterococci sp.): 0.5 (0.125-1.0) μ/ml | MIC Mean (range) (Candida species): 1.5 (0.125-2.0) μ/ml | MIC Mean (Streptococci): 1 µg/mL (≈ 2.5 µM) | MIC Mean [6]: 1 µg/mL (≈ 2.5 µM) | MIC Mean (Gram negative sp.): 3 µg/mL (≈ 7.5 µM)
